Results from patent US20210045385A1, “PYRIDAZINONE-SUBSTITUTED KETOXIMES AS HERBICIDES” (FMC Corporation, priority 2018, published 2021).

Tests used:
Type in all cases: in vivo
[1] = tested on: Italian ryegrass (Lolium mutiflorum); assay: Test C preemergence, visual plant response rating
Method in brief: (§1)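 Compounds in a non-phytotoxic solvent with surfactant were applied as a directed soil spray preemergence or to 2–10 cm, one- to two-leaf plants postemergence, in loam–sand soil. After about 10 d in a greenhouse, injury was visually rated against untreated controls on a 0–100 scale (100 = complete control).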

[2] = tested on: barnyardgrass (Echinochloa crus-galli); assay: Test C preemergence, visual plant response rating
Method in brief: as §1

[3] = tested on: foxtail, giant (giant foxtail, Setaria faberi); assay: Test C preemergence, visual plant response rating
Method in brief: as §1

[4] = tested on: kochia (Bassia scoparia); assay: Test C preemergence, visual plant response rating
Method in brief: as §1

[5] = tested on: pigweed (Amaranthus retroflexus); assay: Test C preemergence, visual plant response rating
Method in brief: as §1

[6] = tested on: ragweed (common ragweed, Ambrosia artemisiifolia); assay: Test C preemergence, visual plant response rating
Method in brief: as §1

[7] = tested on: Italian ryegrass (Lolium mutiflorum); assay: Test C postemergence, visual plant response rating
Method in brief: as §1

[8] = tested on: barnyardgrass (Echinochloa crus-galli); assay: Test C postemergence, visual plant response rating
Method in brief: as §1

[9] = tested on: blackgrass (Alopecurus myosuroides); assay: Test C postemergence, visual plant response rating
Method in brief: as §1

[10] = tested on: corn (Zea mays); assay: Test C postemergence, visual plant response rating
Method in brief: as §1

[11] = tested on: foxtail, giant (giant foxtail, Setaria faberi); assay: Test C postemergence, visual plant response rating
Method in brief: as §1

[12] = tested on: galium (catchweed bedstraw, Galium aparine); assay: Test C postemergence, visual plant response rating
Method in brief: as §1

[13] = tested on: kochia (Bassia scoparia); assay: Test C postemergence, visual plant response rating
Method in brief: as §1

[14] = tested on: pigweed (Amaranthus retroflexus); assay: Test C postemergence, visual plant response rating
Method in brief: as §1

[15] = tested on: ragweed (common ragweed, Ambrosia artemisiifolia); assay: Test C postemergence, visual plant response rating
Method in brief: as §1

[16] = tested on: wheat (Triticum aestivum); assay: Test C postemergence, visual plant response rating
Method in brief: as §1

[17] = tested on: barnyardgrass (Echinochloa crus-galli); assay: Test D flooded paddy test, visual plant response rating; conditions: 250 g ai/ha, scale 0 to 100 (0 no effect, 100 complete control), 13 to 15 d
Method in brief: (§2)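 Plants were grown to the 2-leaf stage, pots flooded to 3 cm above soil, and compound applied directly into the paddy water, with the depth held throughout. After 13 to 15 d in a greenhouse, response was rated visually against untreated controls on a 0–100 scale (0 no effect, 100 complete control).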

[18] = tested on: duck salad (Heteranthera limosa); assay: as above; conditions: 250 g ai/ha, scale 0 to 100 (0 no effect, 100 complete control), 13 to 15 d
Method in brief: as §2

[19] = tested on: rice (Oryza sativa); assay: as above; conditions: 250 g ai/ha, scale 0 to 100 (0 no effect, 100 complete control), 13 to 15 d
Method in brief: as §2

[20] = tested on: sedge umbrella (small-flower umbrella sedge, Cyperus difformis); assay: as above; conditions: 250 g ai/ha, scale 0 to 100 (0 no effect, 100 complete control), 13 to 15 d
Method in brief: as §2

[21] = Test C, 31 g ai/ha, 0 is no effect, 100 is complete control
[22] = Test C, postemergence, 125 g ai/ha
[23] = Test C, 125 g ai/ha, 0 is no effect, 100 is complete control

Row | Compound | Ryegrass, Italian plant response rating (0 to 100 scale) [1, 21] | Barnyardgrass plant response rating (0 to 100 scale) [2, 21] | Foxtail, Giant plant response rating (0 to 100 scale) [3, 21] | Kochia plant response rating (0 to 100 scale) [4, 21] | Pigweed plant response rating (0 to 100 scale) [5, 21] | Ragweed plant response rating (0 to 100 scale) [6, 21] | Ryegrass, Italian plant response rating (0 to 100 scale) ([7]; Postemergence, 31 g ai/ha) | Ryegrass, Italian plant response rating (0 to 100 scale) [7, 22] | Barnyardgrass plant response rating (0 to 100 scale) ([8]; Postemergence, 31 g ai/ha) | Barnyardgrass plant response rating (0 to 100 scale) [8, 22] | Blackgrass plant response rating (0 to 100 scale) ([9]; Postemergence, 31 g ai/ha) | Blackgrass plant response rating (0 to 100 scale) [9, 22] | Corn plant response rating (0 to 100 scale) ([10]; Postemergence, 31 g ai/ha) | Corn plant response rating (0 to 100 scale) [10, 22] | Foxtail, Giant plant response rating (0 to 100 scale) ([11]; Postemergence, 31 g ai/ha) | Foxtail, Giant plant response rating (0 to 100 scale) [11, 22] | Galium plant response rating (0 to 100 scale) ([12]; Postemergence, 31 g ai/ha) | Galium plant response rating (0 to 100 scale) [12, 22] | Kochia plant response rating (0 to 100 scale) ([13]; Postemergence, 31 g ai/ha) | Kochia plant response rating (0 to 100 scale) [13, 22] | other results
1 | Cc1nn(C)c(=O)c(C(=NOC(C)C)c2cc(Cl)cc(Cl)c2F)c1O [Compound 167] | 100 | 100 | 100 | 70 | 100 | 80 | 100 | 100 | 80 | 90 | 80 | 90 | 30 | 70 | 90 | 90 | 80 | 100 | 80 | 100 | Ryegrass, Italian plant response rating (0 to 100 scale) ([1]; 125 g ai/ha): 100; Barnyardgrass plant response rating (0 to 100 scale) ([2]; 125 g ai/ha): 100; Foxtail, Giant plant response rating (0 to 100 scale) ([3]; 125 g ai/ha): 100; Kochia plant response rating (0 to 100 scale) ([4]; 125 g ai/ha): 100; Pigweed plant response rating (0 to 100 scale) ([5]; 125 g ai/ha): 100; Ragweed plant response rating (0 to 100 scale) ([6]; 125 g ai/ha): 100; Pigweed plant response rating (0 to 100 scale) ([14]; Postemergence, 31 g ai/ha): 100; Pigweed plant response rating (0 to 100 scale) [14, 22]: 100; Ragweed plant response rating (0 to 100 scale) ([15]; Postemergence, 31 g ai/ha): 100; Ragweed plant response rating (0 to 100 scale) [15, 22]: 100; Wheat plant response rating (0 to 100 scale) ([16]; Postemergence, 31 g ai/ha): 70; Wheat plant response rating (0 to 100 scale) [16, 22]: 100; Plant response rating, Barnyardgrass (Flood) [17]: 95; Plant response rating, Ducksalad (Flood) [18]: 70; Plant response rating, Rice (Flood) [19]: 65; Plant response rating, Sedge, Umbrella (Flood) [20]: 95
2 | CCO/N=C(\c1c(O)c(C)nn(C)c1=O)c1cccc2cc(Cl)ccc12 [Compound 273] | 0 | 40 | 80 | 0 | 90 | 20 | 10 | 60 | 40 | 80 | 80 | 90 | 0 | 30 | 100 | 100 | 100 | 100 | 40 | 60 | Ryegrass, Italian plant response rating (0 to 100 scale) [1, 23]: 40; Barnyardgrass plant response rating (0 to 100 scale) [2, 23]: 80; Foxtail, Giant plant response rating (0 to 100 scale) [3, 23]: 90; Kochia plant response rating (0 to 100 scale) [4, 23]: 40; Pigweed plant response rating (0 to 100 scale) [5, 23]: 90; Ragweed plant response rating (0 to 100 scale) [6, 23]: 20; Pigweed plant response rating (0 to 100 scale) ([14]; Postemergence, 31 g ai/ha): 90; Pigweed plant response rating (0 to 100 scale) [14, 22]: 100; Ragweed plant response rating (0 to 100 scale) ([15]; Postemergence, 31 g ai/ha): 90; Ragweed plant response rating (0 to 100 scale) [15, 22]: 100; Wheat plant response rating (0 to 100 scale) ([16]; Postemergence, 31 g ai/ha): 0; Wheat plant response rating (0 to 100 scale) [16, 22]: 0; Plant response rating, Barnyardgrass (Flood) [17]: 90; Plant response rating, Ducksalad (Flood) [18]: 95; Plant response rating, Rice (Flood) [19]: 85; Plant response rating, Sedge, Umbrella (Flood) [20]: 95
3 | C#CCON=C(c1cc(Cl)cc(Cl)c1Cl)c1c(O)c(C)nn(C)c1=O [Compound 296] | 90 | 60 | 80 | 0 | 40 | 30 | 80 | 100 | 20 | 70 | 0 | 70 | 0 | 20 | 30 | 90 | 100 | 100 | 30 | 50 | Ryegrass, Italian plant response rating (0 to 100 scale) [1, 23]: 100; Barnyardgrass plant response rating (0 to 100 scale) [2, 23]: 100; Foxtail, Giant plant response rating (0 to 100 scale) [3, 23]: 100; Kochia plant response rating (0 to 100 scale) [4, 23]: 20; Pigweed plant response rating (0 to 100 scale) [5, 23]: 100; Ragweed plant response rating (0 to 100 scale) [6, 23]: 100; Pigweed plant response rating (0 to 100 scale) ([14]; Postemergence, 31 g ai/ha): 80; Pigweed plant response rating (0 to 100 scale) [14, 22]: 90; Ragweed plant response rating (0 to 100 scale) ([15]; Postemergence, 31 g ai/ha): 100; Ragweed plant response rating (0 to 100 scale) [15, 22]: 100; Wheat plant response rating (0 to 100 scale) ([16]; Postemergence, 31 g ai/ha): 70; Wheat plant response rating (0 to 100 scale) [16, 22]: 100; Plant response rating, Barnyardgrass (Flood) [17]: 0; Plant response rating, Ducksalad (Flood) [18]: 0; Plant response rating, Rice (Flood) [19]: 0; Plant response rating, Sedge, Umbrella (Flood) [20]: 0
